In patent publication US20240254129A1, “HETEROCYCLIC COMPOUNDS AND USES THEREOF” (Kumquat Biosciences Inc., priority 2021, published 2024):
pIC50: −log10 of the molar value. Where two headings read alike, the source gives them in different places.

Key:
wildtype Kras / hSOS1 = molecular target: T1, wildtype Kras / hSOS1 (Homo sapiens, UniProt P01116); assay: HTRF assay, wildtype Kras / SOS1 interaction; type: binding; conditions: read-out: IC50 against wildtype Kras
T1 construct: made in house; host or cells: E. coli BL21 (DE3)
How it was run: (§1)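 GST-tagged K-Ras (mutant or wildtype) with anti-GST-Eu donor was mixed with His-hSOS1 and anti-6His-XL665 acceptor in HEPES pH 7.4 buffer with NaCl, DTT, BSA and Igepal. After ≥10 min, HTRF was read (ex 337 nm, em 620/665 nm); 665/620 ratios gave IC50 from duplicate dilution series.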

[1] = molecular target: GST-tagged K-Ras mutant / His-tagged hSOS1 (Homo sapiens, UniProt P01116); assay: HTRF assay, K-Ras mutant / SOS1 interaction; type: binding; conditions: read-out: IC50 against mutant Kras
How it was run: as §1

[2] = compound nos. 102-196, general methodology of example 5

Sequence of GST-tagged K-Ras mutant / His-tagged hSOS1 (P01116 whole entry G12D, form open): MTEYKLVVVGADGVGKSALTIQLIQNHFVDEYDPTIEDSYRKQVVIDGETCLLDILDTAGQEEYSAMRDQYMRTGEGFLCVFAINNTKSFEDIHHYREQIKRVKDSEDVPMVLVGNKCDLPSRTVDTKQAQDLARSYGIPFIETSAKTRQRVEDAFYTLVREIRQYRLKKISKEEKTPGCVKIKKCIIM
T1 sequence (P01116 1-188 isoform P01116-2): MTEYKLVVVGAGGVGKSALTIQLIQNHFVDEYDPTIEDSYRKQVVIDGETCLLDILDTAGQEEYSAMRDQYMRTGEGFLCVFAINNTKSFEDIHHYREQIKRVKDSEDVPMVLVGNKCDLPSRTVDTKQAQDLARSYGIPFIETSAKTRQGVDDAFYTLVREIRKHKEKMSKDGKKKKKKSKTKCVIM

Row | SMILES | pIC50 (wildtype Kras / hSOS1; compound nos. 401-703) | pIC50 ([1]; compound nos. 401-703) | pIC50 (wildtype Kras / hSOS1; [2]) | pIC50 [1, 2]
1 | Nc1nc2c(-c3c(Cl)cc4c(N5CCC[C@@H](N)CC5)nc(OC[C@@]56CCCN5C[C@H](F)C6)nc4c3F)ccc(F)c2s1 [Compound 434, 4-(4-((R)-4-aminoazepan-1-yl)-6-chloro-8-fluoro-2-(((2R,7aS)-2-fluorotetra-hydro-1H-pyrrolizin-7a(5H)-yl)methoxy)quinazolin-7-yl)-7-fluorobenzo[d]thiazol-2-amine] | > 6.30 | > 6.30 |  | 
2 | CN1CCC[C@H]1COc1nc(N2CCNCC3(CC3)C2)c2cc(Cl)c(-c3cccc4sc(N)nc34)c(F)c2n1 [Compound 128, 4-(6-chloro-8-fluoro-2-(((S)-1-methylpyrrolidin-2-yl)-methoxy)-4-(5,8-diazaspiro-[2.6]nonan-5-yl)quinazolin-7-yl)benzo[d]thiazol-2-amine] |  |  | < 6.30 | < 6.30
3 | Nc1nc2c(-c3c(Cl)cc4c(N5CC6CCC(C5)N6)nc(OCC5(CN6CCC(F)(F)C6)CC5)nc4c3F)ccc(F)c2s1 [Compound 411, 4-(4-(3,8-diazabicyclo-[3.2.1]octan-3-yl)-6-chloro-2-((1-((3,3-difluoropyrrol-idin-1-yl)methyl)cycloprop-yl)methoxy)-8-fluoroquin-azolin-7-yl)-7-fluorobenzo-[d]thiazol-2-amine] | > 6.30 | < 6.30 |  | 
4 | Nc1c(-c2c(Cl)cc3c(N4CC5CCC(C4)N5)nc(OCC45CCCN4CCC5)nc3c2F)cccc1C1CC1 [Compound 695, 2-(4-(3,8-diazabicyclo-[3.2.1]octan-3-yl)-6-chloro-8-fluoro-2-((tetrahydro-1H-pyrrolizin-7a(5H)-yl)meth-oxy)quinazolin-7-yl)-6-cyclopropylaniline] | < 6.30 | < 6.30 |  | 
5 | CN1CCC[C@H]1COc1nc(N2CCC(F)C(F)CC2)c2cc(Cl)c(-c3cccc4sc(N)nc34)c(F)c2n1 (stereo partly drawn) [Compound 642, 4-(6-chloro-4-(4,5-difluoro-azepan-1-yl)-8-fluoro-2-(((S)-1-methylpyrrolidin-2-yl)methoxy)quinazolin-7-yl)-benzo[d]thiazol-2-amine] | < 6.30 | > 6.30 |  | 
6 | Nc1nc2c(-c3c(Cl)cc4c(N5CCOCC(O)C5)nc(OCC56CCCN5CCC6)nc4c3F)cccc2s1 (stereo not shown) [Compound 156, 4-(7-(2-aminobenzo[d]-thiazol-4-yl)-6-chloro-8-fluoro-2-((tetrahydro-1H-pyrrolizin-7a(5H)-yl)-methoxy)quinazolin-4-yl)-1,4-oxazepan-6-ol] |  |  | > 6.30 | > 6.30
7 | CN1CCC[C@H]1COc1nc(N2CCNCC(F)(F)C2)c2cc(Cl)c(-c3cccc4sc(N)nc34)c(F)c2n1 [Compound 102, 4-(6-chloro-4-(6,6-difluoro-1,4-diazepan-1-yl)-8-fluoro-2-(((S)-1-methylpyrrolidin-2-yl)methoxy)quinazolin-7-yl)benzo[d]thiazol-2-amine] |  |  | > 6.30 | > 6.30
8 | Cc1ccc2cnn(C)c2c1-c1c(Cl)cc2c(N3CCCCC(F)(F)C3)nc(OC[C@@]34CCCN3C[C@H](F)C4)nc2c1F [Compound 179, 6-chloro-4-(3,3-difluoro-azepan-1-yl)-7-(1,6-dimethyl-1H-indazol-7-yl)-8-fluoro-2-(((2R,7aS)-2-fluoro-tetrahydro-1H-pyrrolizin-7a(5H)-yl)-methoxy)quinazoline] |  |  | < 6.30 | < 6.30
9 | Nc1nc2c(-c3c(Cl)cc4c(N5CCN(Cc6cncnc6)CC(F)(F)C5)nc(OC[C@@]56CCCN5C[C@H](F)C6)nc4c3F)ccc(F)c2s1 [Compound 649, 4-(6-chloro-4-(6,6-difluoro-4-(pyrimidin-5-ylmethyl)-1,4-diazepan-1-yl)-8-fluoro-2-(((2R,7aS)-2-fluorotetra-hydro-1H-pyrrolizin-7a(5H)-yl)methoxy)quinazolin-7-yl)-7-fluorobenzo[d]thiazol-2-amine] | < 6.30 | > 6.30 |  | 
10 | Nc1nc2c(-c3c(Cl)cc4c(N5CCCCC(F)(F)C5)nc(OCC56CCCN5CCC6)nc4c3F)ccc(F)c2s1 [Compound 117, 4-(6-chloro-4-(3,3-difluoro-azepan-1-yl)-8-fluoro-2-((tetrahydro-1H-pyrrolizin-7a(5H)-yl)methoxy)quin-azolin-7-yl)-7-fluorobenzo-[d]thiazol-2-amine] |  |  | > 6.30 | > 6.30
11 | Nc1nc2c(-c3c(Cl)cc4c(N5CCCCCC5)nc(OCC5(CN6CCCC6)CC5)nc4c3F)ccc(F)c2s1 [Compound 677, 4-(4-(azepan-1-yl)-6-chloro-8-fluoro-2-((1-(pyrrolidin-1-ylmethyl)cyclopropyl)meth-oxy)quinazolin-7-yl)-7-fluorobenzo[d]thiazol-2-amine] | < 6.30 | > 6.30 |  | 
12 | CN1CCC[C@H]1COc1nc(N2CCCC(C3CC3)CC2)c2cc(Cl)c(-c3cccc4sc(N)nc34)c(F)c2n1 (stereo partly drawn) [Compound 453, 4-(6-chloro-4-(4-cycloprop-propylazepan-1-yl)-8-fluoro-2-(((S)-1-methylpyrrolidin-2-yl)methoxy)quinazolin-7-yl)benzo[d]thiazol-2-amine] | > 6.30 | < 6.30 |  | 
13 | Cc1ccc(C2(N)CC2)cc1-c1c(Cl)cc2c(N3CC4CCC(C3)N4)nc(OCC34CCCN3CCC4)nc2c1F [Compound 661, 1-(3-(4-(3,8-diazabicyclo-[3.2.1]octan-3-yl)-6-chloro-8-fluoro-2-((tetrahydro-1H-pyrrolizin-7a(5H)-yl)meth-oxy)quinazolin-7-yl)-4-methylphenyl)cyclopropan-1-amine] | < 6.30 | < 6.30 |  | 
14 | CN1CCC[C@H]1COc1nc(N2CCNCC(F)(F)C2)c2cc(Cl)c(-c3cccc4cccc(Cl)c34)c(F)c2n1 [Compound 170, 6-chloro-7-(8-chloronaph-thalen-1-yl)-4-(6,6-difluoro-1,4-diazepan-1-yl)-8-fluoro-2-(((S)-1-methylpyrrolidin-2-yl)methoxy)quinazoline] |  |  | < 6.30 | < 6.30
15 | CN1CCC[C@H]1COc1nc(N2CC3CNCC3C2)c2cc(Cl)c(-c3cccc4sc(N)nc34)c(F)c2n1 (stereo partly drawn) [Compound 144, 4-(6-chloro-8-fluoro-4-(hexahydropyrrolo[3,4-c]-pyrrol-2(1H)-yl)-2-(((S)-1-methylpyrrolidin-2-yl)meth-oxy)quinazolin-7-yl)benzo-[d]thiazol-2-amine] |  |  | < 6.30 | < 6.30
16 | CN1C[C@@H](F)C[C@H]1COc1nc(N2CCNCC(F)(F)C2)c2cc(Cl)c(-c3cccc4sc(N)nc34)c(F)c2n1 [Compound 130, 4-(6-chloro-4-(6,6-difluoro-1,4-diazepan-1-yl)-8-fluoro-2-(((2S,4S)-4-fluoro-1-methylpyrrolidin-2-yl)meth-oxy)quinazolin-7-yl)benzo-[d]thiazol-2-amine] |  |  | > 6.30 | < 6.30
17 | Nc1nc2c(-c3cc4nc(OCC56CCCN5CCC6)nc(N5CC6CCC(C5)N6)c4cc3Cl)ccc(F)c2s1 [Compound 591, 4-(4-(3,8-diazabicyclo-[3.2.1]octan-3-yl)-6-chloro-2-((tetrahydro-1H-pyrrol-izin-7a(5H)-yl)methoxy)-quinazolin-7-yl)-7-fluoro-benzo[d]thiazol-2-amine] | < 6.30 | > 6.30 |  | 
18 | OC1Cc2ccccc2N(c2ccc3c(N4CCCCCC4)nc(OCC45CCCN4CCC5)nc3c2F)C1 (stereo not shown) [Compound 534, 1-(4-(azepan-1-yl)-8-fluoro-2-((tetrahydro-1H-pyrrol-izin-7a(5H)-yl)methoxy)-quinazolin-7-yl)-1,2,3,4-tetrahydroquinolin-3-ol] | < 6.30 | < 6.30 |  | 
19 | Nc1nc2c(-c3c(Cl)cc4c(N5C6CCNCC5CC6)nc(OC[C@@]56CCCN5C[C@H](F)C6)nc4c3F)ccc(F)c2s1 (stereo partly drawn) [Compound 568, 4-(4-(3,9-diazabicyclo-[4.2.1]-nonan-9-yl)-6-chloro-8-fluoro-2-(((2R,7aS)-2-fluorotetrahydro-1H-pyrrol-izin-7a(5H)-yl)methoxy)-quinazolin-7-yl)-7-fluoro-benzo[d]thiazol-2-amine] | < 6.30 | > 6.30 |  | 
20 | Nc1nc2c(-c3c(Cl)cc4c(N5CCNCC(F)(F)C5)nc(OC[C@@]56CCCN5C[C@H](F)C6)nc4c3F)cccc2o1 [Compound 174, 4-(6-chloro-4-(6,6-difluoro-1,4-diazepan-1-yl)-8-fluoro-2-(((2R,7aS)-2-fluorotetra-hydro-1H-pyrrolizin-7a(5H)-yl)methoxy)quinazolin-7-yl)benzo[d]oxazol-2-amine] |  |  | > 6.30 | > 6.30
21 | Nc1nc2c(-c3c(Cl)cc4c(N5CC6CCCC(C5)N6)nc(OC[C@@]56CCCN5C[C@H](F)C6)nc4c3F)ccc(F)c2s1 [Compound 607, 4-(4-(3,9-diazabicyclo-[3.3.1]nonan-3-yl)-6-chloro-8-fluoro-2-(((2R,7aS)-2-fluorotetrahydro-1H-pyrrol-izin-7a(5H)-yl)methoxy)-quinazolin-7-yl)-7-fluoro-benzo[d]thiazol-2-amine] | < 6.30 | > 6.30 |  | 
22 | Nc1nc2c(-c3c(Cl)cc4c(N5CCCCC(F)C5)nc(OC[C@@]56CCCN5C[C@H](F)C6)nc4c3F)ccc(F)c2s1 (stereo partly drawn) [Compound 190, 4-(6-chloro-8-fluoro-4-(3-fluoroazepan-1-yl)-2-(((2R,7aS)-2-fluorotetra-hydro-1H-pyrrolizin-7a(5H)-yl)methoxy)quin-azolin-7-yl)-7-fluorobenzo-[d]thiazol-2-amine] |  |  | > 6.30 | > 6.30
23 | Nc1nc2c(-c3c(Cl)cc4c(N5CC6CCC(C5)O6)nc(OC[C@@]56CCCN5C[C@H](F)C6)nc4c3F)ccc(F)c2s1 [Compound 454, 4-(4-(8-oxa-3-azabicyclo-[3.2.1]octan-3-yl)-6-chloro-8-fluoro-2-(((2R,7aS)-2-fluorotetrahydro-1H-pyrrolizin-7a(5H)-yl)meth-oxy)quinazolin-7-yl)-7-fluorobenzo[d]thiazol-2-amine] | > 6.30 | > 6.30 |  | 
